The source of these data is ChEMBL document CHEMBL2150864 (Eur J Med Chem, 2012).

A word on the Kd: it is the concentration at which binding is half-saturated. The low end stands for tighter binding, the high end for weaker binding. By IC50 is commonly meant the concentration at which inhibition is half-maximal. Read a low IC50 as higher potency.

Series [1] is described as follows: Metabolic stability in Wistar rat plasma at 39 MBq, iv after 60 mins. It counts as ADME, organism-based. To be noted: read-out: Stability.
Series [2] concerns the target Vascular endothelial growth factor receptor 2 (Homo sapiens, UniProt P35968). Put plainly: Binding affinity to DNA-tagged VEGFR2 by qPCR based competitive binding assay. (In general: Real-time PCR tracks product formation cycle by cycle.)
Series [3] can be described thus: Cytotoxicity against VEGFR expressing HAEC after 72 hrs by MTT assay. The class given is functional, Homo sapiens. (In general: Tetrazolium assays rely on reduction of a dye to a coloured formazan, in cell work by metabolically active cells.)
The next series concerns HT-29. Put plainly: Cytotoxicity against VEGFR expressing human HT-29 cells after 72 hrs by MTT assay. The conditions noted are these: HT-29, 72 h. It counts as functional, cell-based.

Vascular endothelial growth factor receptor 2, sequence (P35968 whole entry): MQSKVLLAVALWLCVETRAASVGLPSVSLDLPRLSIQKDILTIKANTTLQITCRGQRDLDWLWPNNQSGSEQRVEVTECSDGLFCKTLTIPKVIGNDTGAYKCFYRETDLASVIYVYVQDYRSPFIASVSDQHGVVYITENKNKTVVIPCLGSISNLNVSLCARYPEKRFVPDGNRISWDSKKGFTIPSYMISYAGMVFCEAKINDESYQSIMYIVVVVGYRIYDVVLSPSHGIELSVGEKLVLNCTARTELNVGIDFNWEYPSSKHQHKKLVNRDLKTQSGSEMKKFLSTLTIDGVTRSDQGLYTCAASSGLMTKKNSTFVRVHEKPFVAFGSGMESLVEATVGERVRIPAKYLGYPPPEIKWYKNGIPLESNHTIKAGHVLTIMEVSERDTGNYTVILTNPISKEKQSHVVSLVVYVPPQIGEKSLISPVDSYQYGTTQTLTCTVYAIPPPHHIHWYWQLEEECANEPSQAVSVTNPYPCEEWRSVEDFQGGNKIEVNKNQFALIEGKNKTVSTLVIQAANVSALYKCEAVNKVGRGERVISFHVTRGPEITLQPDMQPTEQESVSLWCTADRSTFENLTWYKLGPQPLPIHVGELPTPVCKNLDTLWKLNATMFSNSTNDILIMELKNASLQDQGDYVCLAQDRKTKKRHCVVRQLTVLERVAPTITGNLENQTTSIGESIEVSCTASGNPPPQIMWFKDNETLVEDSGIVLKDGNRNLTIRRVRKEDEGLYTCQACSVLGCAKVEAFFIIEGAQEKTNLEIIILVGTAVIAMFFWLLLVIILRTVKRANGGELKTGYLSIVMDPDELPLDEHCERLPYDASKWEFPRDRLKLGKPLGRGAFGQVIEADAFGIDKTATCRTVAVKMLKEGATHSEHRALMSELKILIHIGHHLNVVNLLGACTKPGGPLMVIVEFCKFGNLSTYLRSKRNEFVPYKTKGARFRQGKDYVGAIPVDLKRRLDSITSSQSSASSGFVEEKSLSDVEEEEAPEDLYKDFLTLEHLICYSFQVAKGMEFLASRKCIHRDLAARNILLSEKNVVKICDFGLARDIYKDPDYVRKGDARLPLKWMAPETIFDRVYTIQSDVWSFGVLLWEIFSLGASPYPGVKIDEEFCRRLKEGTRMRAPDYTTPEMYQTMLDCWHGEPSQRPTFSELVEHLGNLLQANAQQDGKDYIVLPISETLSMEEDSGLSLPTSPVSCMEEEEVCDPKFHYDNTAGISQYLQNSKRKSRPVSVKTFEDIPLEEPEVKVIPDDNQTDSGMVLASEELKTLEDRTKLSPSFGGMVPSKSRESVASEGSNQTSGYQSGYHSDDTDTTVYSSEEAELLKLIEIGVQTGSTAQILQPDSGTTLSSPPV

Consider `CCN(CC)CCNC(=O)c1c(C)[nH]c(/C=C2\C(=O)Nc3ccc(O[11CH3])cc32)c1C`, for which the remaining at 1 h in series [1] was above 70%.
For `CCN(CC)CCNC(=O)c1c(C)[nH]c(/C=C2\C(=O)Nc3ccc(OC)cc32)c1C`, in series [2], binding was characterised by a dissociation constant (Kd) of 0.02 µM. For the same compound, the concentration for half-maximal inhibition (IC50) in series [3] stood at 54.8 µM; in the series with HT-29, 7.88 µM.
In series [3], `CCN(CC)CCNC(=O)c1c(C)[nH]c(/C=C2\C(=O)Nc3ccc(F)cc32)c1C` [SUNITINIB] displayed an IC50 of 0.1 µM.
